Data as given in patent US20080020014A1, “Implantable devices containing nuclear receptor ligands for the treatment of vascular and related disorders” (priority 2006, published 2008).

How the values were obtained:
[1] = tested on: PPARs; details: cited from earlier work
[2] = tested on: rat carotid arteries; details: balloon-denuded rat carotid arteries; cited from earlier work
[3] = Drug-release rate of Example 3 stents in phosphate-buffered saline with 1 mass % sodium dodecyl sulfate, pH 7.4, 37° C., HPLC; assay type: physicochemical
Description: A drug-polymer layer comprising 17-β estradiol was applied onto a stent in the following manner. A first composition was prepared by mixing the following components: • (a) about 2.0 mass % of EVAL; and • (b) the balance, a mixture of solvents, DMAC and ethanol, in a ratio of DMAC to ethanol of about 70:30 by mass.
The first composition was applied onto the surface of a bare 13 mm TETRA stent (available from Abbott Vascular Corp.) by spraying and dried to form a primer layer. A spray coater having an EFD 7803 spray valve with 0.014 inch fan nozzle with a VALVEMATE 7040 control system (manufactured by EFD Inc. of East Providence, R.I) was used. The fan nozzel was maintained at about 60° C. with a feed pressure of about 0.2 atm (about 3 psi) and an atomization pressure of about 1.35 atm (about 20 psi). An average of about 19 micrograms (μg) per coating pass was applied and an average total of about 62 μg of the wet coating was applied.
The primer layer was baked at about 140° C. for about one hour, yielding a layer with an average total amount of solids of about 61 μg, corresponding to an average thickness on the stent of 0.65 μm. “Solids” means the amount of dry residue deposited on the stent after all volatile organic compounds (e.g., the solvent) have been removed.
A second composition was prepared by mixing the following components: • (a) about 2.0 mass % of EVAL; • (b) about 0.7 mass % 17-β estradiol; and • (c) the balance, a mixture of solvents, DMAC and ethanol, in a ratio of DMAC to ethanol of about 70:30 by mass.
The second composition was applied onto the dried primer layer to form a drug-polymer polymer layer using the same spraying technique and equipment used for the primer layer. […] of the wet coating was applied, followed by drying at about 50° C. for about 2 hours. The total amount of solids of the drug-polymer layer was about 494 μg, corresponding to an average thickness on the stent of about 5.3 μm.
A third, topcoat composition was prepared by mixing the following components: • (a) about 1.2 g of a 10 mass % solution of KYNAR-FLEX 2800 in acetone; • (b) about 1.89 g of additional acetone; • (c) about 5.94 g of cyclohexanone; and • (d) about 2.97 g of AMS FLUX REMOVER.
The topcoat composition was applied by spraying using an EFD 7803 spray valve with 0.014 inch fan nozzle to form a topcoat layer, followed by drying. The nozzle temperature was at ambient temperature with a feed pressure of about 0.2 atm (3 psi) and an atomization pressure of about 1 atm (15 psi). The dryer temperature was at ambient temperature with a dryer air pressure of about 2.7 atm (40 psi). An average of about 5 μg per coating pass was applied and an average total of about 60 μg of wet coating was applied. The topcoat layer was baked at about 50° C. for two hours, yielding a total amount of solids of about 55 μg, corresponding to a thickness of about 0.38 μm.
Three stents coated according to this example were tested for their drug-release rate. The stents were immersed in individual, stirred vessels containing a phosphate-buffered saline solution that included about 1 mass % of sodium dodecyl sulfate. […] The amount of 17-β estradiol released was determined at measured intervals of time by HPLC. […] There was an initial small burst of 17-β estradiol during the first 20 hours, after which the release rate became approximately linear. Specifically, about 18% of 17-β estradiol was released after 10 hr, 25% after 20 hr, 30% after 30 hr, 35% after 40 hr, 40% after 50 hr, 43% after 60 hr, and 45% after 70 hr.

[4] = tested on: atherosclerosis; details: through liver X receptors (LXR); cited from earlier work
[5] = tested on: rat carotid arteries; details: after balloon injury to rat carotid arteries; cited from earlier work
[6] = tested on: vascular smooth muscle cell; details: cited from earlier work
[7] = tested on: collagenase gene expression at AP-1 binding sites; details: cited from earlier work
[8] = tested on: rabbit femoral arteries; details: 28 days after angioplasty; cited from earlier work
[9] = in blood; may not happen in tissue; listed as Tazarotene; cited from earlier work
[10] = tested on: retinoic acid receptors (RARs); details: cited from earlier work

Compound	PPAR subtypes activated [1]	further results
9-(R/S) hydroxyoctadecadienoic acid [9-(R/S) HODE]	γ	–
CCCCC[C@H](O)/C=C/C=C\CCCCCCCC(=O)O (racemic) [13-(R/S) HODE]	γ	–
CCCCCCCCCCCCCCC(Br)C(=O)O (stereo not shown) [2-bromopalmitate]	α, δ	–
CCCCC/C=C\C/C=C\C=C\[C@H](O)C/C=C\CCCC(=O)O [8-(R) HETE, 8-(R)-hydroxyeicosatetaenoic acid]	α, γ	–
CCCCC/C=C\C/C=C\C=C\[C@@H](O)C/C=C\CCCC(=O)O [8-(S) HETE]	α, γ	–
CCC=CCC=CCC=CC=CC(O)CC=CCCCC(=O)O (stereo not shown) [8-HEPE, 8-hydroxyeicosapentaenoic acid]	α	–
CCCCCC=CC=CC(=O)CCCCCCCC(=O)O [9-oxo ODE, 9-oxo octadecadienoic acid]	γ	–
CCCCC/C=C\C[C@H](O)/C=C/C=C\C/C=C\CCCC(=O)O [12-HETE]	α	–
CCCCC[C@@H](/C=C/C=C\CCCCCCCC(=O)O)OO [13-(S) HpODE, 13-(S) hydroperoxyoctadecadienoic acid]	γ	–
CC1=C(/C=C/C(C)=C/C=C/C(C)=C\C(=O)O)C(C)(C)CCC1 [13-cis retinoic acid]	–	intimal thickening [2]: suppressed; vessel remodeling [2]: increased
CCCCCC(=O)/C=C/C=C\CCCCCCCC(=O)O [13-oxo ODE]	γ	–
CCCCC[C@H](O)/C=C/C=C\C/C=C\C/C=C\CCCC(=O)O [15-HETE]	γ	–
CCCCC/C=C/C=C1/C(=O)C=C[C@@H]1C/C=C\CCCC(=O)O [15d-PGJ2, 15-deoxy-Δ^12,14-PGJ2]	α, δ, γ	–
C[C@]12CC[C@@H]3c4ccc(O)cc4CC[C@H]3[C@@H]1CC[C@@H]2O [17-β estradiol]	–	17-β estradiol released ([3]; after 10 hr, EVAL drug-polymer layer, KYNAR-FLEX 2800 topcoat): about 18%; 17-β estradiol released ([3]; after 20 hr): ~25%; 17-β estradiol released ([3]; after 30 hr): ~30%; 17-β estradiol released ([3]; after 40 hr): ~35%; 17-β estradiol released ([3]; after 50 hr): ~40%; 17-β estradiol released ([3]; after 60 hr): ~43%; 17-β estradiol released ([3]; after 70 hr): ~45%
CCCCCC#CCC#CCC#CCC#CCCCC(=O)O [ETYA, eicosatetraynoic acid]	α	–
CC(C)(Sc1ccc(CCN(CCCCC2CCCCC2)C(=O)NC2CCCCC2)cc1)C(=O)O [GW-7647]	α	atherosclerosis and formation of microphage-forming cells [4]: inhibited

Compound	PPAR subtypes activated [1]	further results
CCCCC/C=C\C[C@@H](O)/C=C/C=C/C=C\[C@@H](O)CCCC(=O)O [LTB4]	α	–
CCCCC[C@H](O)/C=C/C1=C(C/C=C\CCCC(=O)O)C(=O)CC1 [PGB2]	α, δ, γ	–
CCCCC[C@H](O)/C=C/[C@H]1C(=O)C=C[C@@H]1C/C=C\CCCC(=O)O [PGJ2, prostaglandin J2]	α, δ, γ	–
CCC/C=C/C/C=C/C=C/C=N/NN=O [Triacsin C]	α	–
Cc1cccc(Nc2cc(Cl)nc(SCC(=O)O)n2)c1C [WY-14643]	α, δ, γ	–
CC1=C(/C=C/C(C)=C/C=C/C(C)=C/C(=O)O)C(C)(C)CCC1 [all-trans retinoic acid]	–	favorable geometric remodeling [5]: promoted; neointimal formation [5]: reduced; vascular smooth muscle cell proliferation [6]: inhibited; intimal thickening [2]: suppressed; vessel remodeling [2]: increased; collagenase gene expression at AP-1 binding sites [7]: inhibited
CCCCC/C=C\C/C=C\C/C=C\C/C=C\CCCC(=O)O [arachidonic acid]	α, δ, γ	–
CC/C=C\C/C=C\C/C=C\C/C=C\C/C=C\C/C=C\CCC(=O)O [docahexanoic acid]	α, δ, γ	–
CCCCC/C=C\C/C=C\CCCCCCCC(=O)O [linoleic acid]	α, δ	–
CCCCCCCCCSCC(=O)O [nonythioacetic acid]	α	–
CCCCC[C@H](O)/C=C/[C@@H]1[C@H]2C/C(=C/CCCC(=O)O)O[C@H]2C[C@H]1O [prostacyclin (PGI2), prostacyclin]	α, δ, γ	–
CC1=C(/C=C/C(C)=C/C=C/C(C)=C/CO)C(C)(C)CCC1 [retinol]	–	internal and external elastic lamina [8]: larger
CCOC(=O)c1ccc(C#Cc2ccc3c(c2)C(C)(C)CCS3)nc1 [tazarotene]	–	Pharmacokinetics: de-esterification / metabolism to tazarotenic acid [9]: rapidly metabolized to tazarotenic acid; Receptor specificity [10]: specific for retinoic acid receptors (RARs)
CCCCCCCCCCCCCCC1(C(=O)O)CO1 (stereo not shown) [tetradecylglycidic acid]	α, δ	–
CCCCCCCCCCCCCCSCC(=O)O [tetradecythioacetate]	α	–
clofibrates	α, δ, γ	–
